Results: patent publication US6914045B2, “Glycopeptide antibiotics” (Wyeth Holdings Corporation, priority 2001, dated 2005)
Values after ≈ are worked out from the molar mass of the structure shown.

Columns and labels:
Test in all cases: in vitro antibacterial evaluation, MIC by broth dilution
Type in all cases: cell-based
Escherichia coli = conditions: 18 hours at 35° C.
In short: (§1)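 Broth dilution per NCCLS standard M7-A2 in Muller-Hinton II […], with an inoculum of 5×10^5 CFU/mL and antibiotic spanning 64-0.06 μg/mL. The MIC is the lowest concentration that inhibits growth of the organism.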

Enterococcus sp. = conditions: broth dilution, 18 hours at 35° C.
In short: as §1

Streptococcus sp. = conditions: broth dilution, 18 hours at 35° C.
In short: as §1

Staphylococcus sp. = conditions: broth dilution, 18 hours at 35° C.
In short: as §1

## CC(c1ccccc1)C1NC(=O)CNC(=O)C(CO)NC(=O)C(C(O)C2CNC(=N)N2C2OC(CO)C(O)C(O)C2O)NC(=O)C(C(O)C2CNC(=N)N2)NC(=O)C(Cc2ccc(OC3OC(CO)C(OC4OC5COC(C67CC8CC(CC(C8)C6)C7)OC5C(O)C4O)C(O)C3O)cc2)NC1=O (stereo not drawn) [Example 127]
Escherichia coli; strain ATCC 25922
  MIC Escherichia coli (ATCC 25922): 64 µg/mL (≈ 44.4 µM)
Escherichia coli; strain GC 4559
  MIC Escherichia coli (GC 4559): 64 µg/mL (≈ 44.4 µM)
Escherichia coli; strain GC 4560
  MIC Escherichia coli (GC 4560): 4 µg/mL (≈ 2.77 µM)
Enterococcus sp.; Enterococcus avium (GC 4558)
  MIC Enterococcus avium (GC 4558): 2 µg/mL (≈ 1.39 µM)
Enterococcus sp.; Enterococcus faecalis (ATCC 29212)
  MIC Enterococcus faecalis (ATCC 29212): 2 µg/mL (≈ 1.39 µM)
Enterococcus sp.; Enterococcus faecalis (GC 2242)
  MIC Enterococcus faecalis (GC 2242): 4 µg/mL (≈ 2.77 µM)
Enterococcus sp.; Enterococcus faecalis (GC 2691)
  MIC Enterococcus faecalis (GC 2691): 4 µg/mL (≈ 2.77 µM)
Enterococcus sp.; Enterococcus faecalis (GC 3059)
  MIC Enterococcus faecalis (GC 3059): 2 µg/mL (≈ 1.39 µM)
Enterococcus sp.; Enterococcus faecalis (GC 4552)
  MIC Enterococcus faecalis (GC 4552): 4 µg/mL (≈ 2.77 µM)
Enterococcus sp.; Enterococcus faecalis (GC 4553)
  MIC Enterococcus faecalis (GC 4553): 4 µg/mL (≈ 2.77 µM)
Enterococcus sp.; Enterococcus faecalis (GC 4554)
  MIC Enterococcus faecalis (GC 4554): 4 µg/mL (≈ 2.77 µM)
Enterococcus sp.; Enterococcus faecalis (GC 6189)
  MIC Enterococcus faecalis (GC 6189): 2 µg/mL (≈ 1.39 µM)
Enterococcus sp.; Enterococcus faecium (GC 2243)
  MIC Enterococcus faecium (GC 2243): 4 µg/mL (≈ 2.77 µM)
Enterococcus sp.; Enterococcus faecium (GC 4556)
  MIC Enterococcus faecium (GC 4556): 4 µg/mL (≈ 2.77 µM)
Enterococcus sp.; Enterococcus faecium (GC 4557)
  MIC Enterococcus faecium (GC 4557): 4 µg/mL (≈ 2.77 µM)
Enterococcus sp.; strain ATCC 29212
  MIC Enterococcus faecalis (ATCC 29212): 2 µg/mL (≈ 1.39 µM)
Enterococcus sp.; strain GC 2242
  MIC Enterococcus faecalis (GC 2242): 4 µg/mL (≈ 2.77 µM)
Enterococcus sp.; strain GC 2243
  MIC Enterococcus faecium (GC 2243): 4 µg/mL (≈ 2.77 µM)
Enterococcus sp.; strain GC 2691
  MIC Enterococcus faecalis (GC 2691): 4 µg/mL (≈ 2.77 µM)
Enterococcus sp.; strain GC 3059
  MIC Enterococcus faecalis (GC 3059): 2 µg/mL (≈ 1.39 µM)
Enterococcus sp.; strain GC 4552
  MIC Enterococcus faecalis (GC 4552): 4 µg/mL (≈ 2.77 µM)
Enterococcus sp.; strain GC 4553
  MIC Enterococcus faecalis (GC 4553): 4 µg/mL (≈ 2.77 µM)
Enterococcus sp.; strain GC 4554
  MIC Enterococcus faecalis (GC 4554): 4 µg/mL (≈ 2.77 µM)
Enterococcus sp.; strain GC 4556
  MIC Enterococcus faecium (GC 4556): 4 µg/mL (≈ 2.77 µM)
Enterococcus sp.; strain GC 4557
  MIC Enterococcus faecium (GC 4557): 4 µg/mL (≈ 2.77 µM)
Enterococcus sp.; strain GC 4558
  MIC Enterococcus avium (GC 4558): 2 µg/mL (≈ 1.39 µM)
Enterococcus sp.; strain GC 6189
  MIC Enterococcus faecalis (GC 6189): 2 µg/mL (≈ 1.39 µM)
Streptococcus sp.; Streptococcus agalactiae (GC 4564)
  MIC Streptococcus agalactiae (GC 4564): <0.12 µg/mL
Streptococcus sp.; Streptococcus pneumoniae (ATCC 6301)
  MIC Streptococcus pneumoniae (ATCC 6301): <0.12 µg/mL
Streptococcus sp.; Streptococcus pneumoniae (GC 1894)
  MIC Streptococcus pneumoniae (GC 1894): <0.12 µg/mL
Streptococcus sp.; Streptococcus pneumoniae (GC 4565)
  MIC Streptococcus pneumoniae (GC 4565): <0.12 µg/mL
Streptococcus sp.; Streptococcus pyogenes (GC 4563)
  MIC Streptococcus pyogenes (GC 4563): 0.25 µg/mL (≈ 0.173 µM)
Streptococcus sp.; strain ATCC 6301
  MIC Streptococcus pneumoniae (ATCC 6301): <0.12 µg/mL
Streptococcus sp.; strain GC 1894
  MIC Streptococcus pneumoniae (GC 1894): <0.12 µg/mL
Streptococcus sp.; strain GC 4563
  MIC Streptococcus pyogenes (GC 4563): 0.25 µg/mL (≈ 0.173 µM)
Streptococcus sp.; strain GC 4564
  MIC Streptococcus agalactiae (GC 4564): <0.12 µg/mL
Streptococcus sp.; strain GC 4565
  MIC Streptococcus pneumoniae (GC 4565): <0.12 µg/mL
Staphylococcus sp.
  MIC Staphylococcus aureus (ATCC 29213): 2 µg/mL (≈ 1.39 µM)
  MIC Staphylococcus aureus (GC 1131): 4 µg/mL (≈ 2.77 µM)
  MIC Staphylococcus aureus (GC 3051): 2 µg/mL (≈ 1.39 µM)
  MIC Staphylococcus aureus (GC 3053): 2 µg/mL (≈ 1.39 µM)
  MIC Staphylococcus aureus (GC 4541): 4 µg/mL (≈ 2.77 µM)
  MIC Staphylococcus aureus (GC 4542): 2 µg/mL (≈ 1.39 µM)
  MIC Staphylococcus aureus (GC 4544): 4 µg/mL (≈ 2.77 µM)
  MIC Staphylococcus aureus (GC 4545): 2 µg/mL (≈ 1.39 µM)
Staphylococcus sp.; inoculum 5×10^5 CFU/mL, strain GC 1131
  MIC Staphylococcus aureus (GC 1131): 4 µg/mL (≈ 2.77 µM)
Staphylococcus sp.; strain ATCC 29213
  MIC Staphylococcus aureus (ATCC 29213): 2 µg/mL (≈ 1.39 µM)
Staphylococcus sp.; strain GC 3051
  MIC Staphylococcus aureus (GC 3051): 2 µg/mL (≈ 1.39 µM)
Staphylococcus sp.; strain GC 3053
  MIC Staphylococcus aureus (GC 3053): 2 µg/mL (≈ 1.39 µM)
Staphylococcus sp.; strain GC 4541
  MIC Staphylococcus aureus (GC 4541): 4 µg/mL (≈ 2.77 µM)
Staphylococcus sp.; strain GC 4542
  MIC Staphylococcus aureus (GC 4542): 2 µg/mL (≈ 1.39 µM)
Staphylococcus sp.; strain GC 4543
  MIC Staphylococcus aureus-SMITH (GC 4543): 2 µg/mL (≈ 1.39 µM)
Staphylococcus sp.; strain GC 4544
  MIC Staphylococcus aureus (GC 4544): 4 µg/mL (≈ 2.77 µM)
Staphylococcus sp.; strain GC 4545
  MIC Staphylococcus aureus (GC 4545): 2 µg/mL (≈ 1.39 µM)
Staphylococcus sp.; strain GC 4546
  MIC Staphylococcus haemolyticus (GC 4546): 2 µg/mL (≈ 1.39 µM)
Staphylococcus sp.; strain GC 4547
  MIC Coagulase Negative Staphylococcus (GC 4547): 4 µg/mL (≈ 2.77 µM)
Staphylococcus sp.; strain GC 4548
  MIC Coagulase Negative Staphylococcus (GC 4548): 2 µg/mL (≈ 1.39 µM)
Staphylococcus sp.; strain GC 4549
  MIC Coagulase Negative Staphylococcus (GC 4549): 1 µg/mL (≈ 0.694 µM)
Staphylococcus sp.; strain GC 4551
  MIC Coagulase Negative Staphylococcus (GC 4551): 2 µg/mL (≈ 1.39 µM)
Staphylococcus sp.; strain SMITH GC 4543
  MIC Staphylococcus aureus-SMITH (GC 4543): 2 µg/mL (≈ 1.39 µM)
